Test results reported in patent US20100035822A1, “PROLINE-RICH PEPTIDES, PHARMACEUTICAL COMPOSITION, USE OF ONE OR MORE PEPTIDES AND METHOD OF TREATMENT” (priority 2006, published 2010).

Columns and labels:
[1] = test system: HUVEC cells (human umbilical vessel endothelial cells); assay: NO (nitrite) production in HUVEC cells; type: cell-based; settings: 24 hours incubation
Experimental: HUVEC cells (human umbilical vessel endothelial cells) were obtained from umbilical vessels, a gift from the University Hospital of the University of São Paulo. Vessels were washed externally with ethanol 96%, and after a diagonal cut at the end of the vessel, a catheter was introduced into the vessel vein, and attached to a three way valve. The vein was washed with 20 ml sterile saline, and the other end of the vessel was tied. One milliliter of a collagenase type IV solution was introduced (0.2 mg/ml/cm of umbilical vessel). The vessel was transferred to a Petri dish (10 cm^2), and incubated for 15 minutes at 37° C. Cells contained inside the cord were removed by massage, and transferred to a sterile tube. Bovine fetal serum was added to a final concentration of 10%, and the suspension was centrifuged for 10 minutes at 3.000 g at 4° C., and the cell pellet was resuspended in 2 ml complete medium (40% Medium 199, 40% DMEM, 18% bovine fetal serum, 1% L-glutamine, 1% penicillin/streptomycin). The cell suspension was transferred to a bottle, previously treated with a 1% gelatin solution (30 min at 4° C.), and 5 mL complete medium was added. The bottle was incubated at 37° C. at 5% CO2 atmosphere. […]
Cells were grown in Petri dishes to 80% confluence. […] The concentration of nitrite, derived from NO, was measured in the extracellular and the intracellular media.

[2] = test system: total kidney protein extract; assay: NO production in total kidney protein extract; type: biochemical, mouse; settings: kidney homogenate of mice; 0.01 to 50 μmol, preferentially 0.5 to 2 μmol peptide
Experimental: The release of NO was evaluated by means of nitrate and nitrit accumulation in total kidney protein extract of male Swiss mice weighing 30-35 g, as described by Wu and Yen (Wu C C and Yen M H. Higher level of plasma nitric oxide in spontaneously hypertensive rats. Am. J. Hypertension 12: 476-482, 1999). Animals were subjected to perfusion with 0.9% saline solution containing heparin (1:1000). Kidneys were collected and homogenized in cold 50 mM Tris-HCl, 0.1 mM EDTA, 0.1 mM EGTA, 12 mM β-mercaptoethanol, and 1 mM phenylmethylsulphonyl fluoride, pH 7.4 buffer in a homogenizer (Polytron PT MR 3000, Kinematic AG, Littau). Homogenates were incubated with 10 nM, 1 μM, or 10 μM peptide SEQ ID NO 8 in a final volume of 500 μl for 1 hour. Trichloracetic acid (1%) was added at 4° C., and after 20 minutes the mixture was centrifuged at 13.000 g for 7 min at 4° C. A saturated solution of vanadium chloride (VCl3) in 1 M HCl at 90° C. was added to the supernatant, and the concentration of NO was determined by gas chemiluminescence by means of the reaction of NO with ozone in a NO analyzer (NOA^TM280; Sievers Inc.). The concentration of nitrate was determined using a standard curve of NaNO3 and the Bag software 2.2 (Sievers Instruments Inc.).

<ENWPHPQIPP [SEQ ID NO 8]
increase of NO generation [1]: approximately 100%
increase of nitrite production (generated from NO) [2]: 5 fold
